In PubChem BioAssay (NCI):
“And” between values parts separate entries of the source, which are not always exact repeats. Equal entries are not always repeated.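 These data come from cells grown in 96-well plates and exposed to compound for 48 hours at five concentrations. The concentration for 50% growth inhibition is given as GI50. Definition used: TGI = concentration required for complete inhibition of growth.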

What was measured:
Experiment in all cases: NCI-60 cell line screen, 48 h
[1] = tested on: SK-OV-3 ovarian
[2] = tested on: MALME-3M melanoma
[3] = tested on: LOX IMVI melanoma
[4] = tested on: SF-539 CNS
[5] = tested on: HCC-2998 colon
[6] = tested on: CAKI-1 renal
[7] = tested on: EKVX NSCLC
[8] = tested on: OVCAR-3 ovarian
[9] = tested on: M14 melanoma
[10] = tested on: HCT-116 colon

SMILES	TGI [1]	TGI [2]	TGI [3]	TGI [4]	TGI [5]	TGI [6] [µM]	TGI [7]	TGI [8]	TGI [9] [µM]	TGI [10]	GI50 [1]	GI50 [4]	GI50 [6] [µM]	GI50 [7] [µM]	GI50 [9] [µM]	GI50 [2] [µM]	GI50 [3] [µM]	GI50 [5] [µM]	GI50 [8]	GI50 [10]
CC(=O)ON(C(C)=O)C1C(COC(c2ccccc2)(c2ccccc2)c2ccccc2)OC2OC3(CCCC3)OC21 (stereo not given)	> 100 µM	> 100 µM	21.3 µM	> 100 µM	> 100 µM	> 100	> 100 µM	> 100 µM	> 100	> 100 µM	–	–	–	–	–	–	–	–	–	–
CC(=O)C1CCC2C3CC=C4CC(SC(=N)N)CCC4(C)C3CCC12C (stereo not given)	18 µM	–	–	3.96 µM	–	4.24	6.88 µM	–	2.81	–	4.19 µM	1.87 µM	1.68	1.43	1.46	–	–	–	–	–
Cn1nc(-c2ccccc2)c(C(=O)/C=C/c2ccc(F)cc2)c(N2CCOCC2)c1=O	> 100 µM	–	75.4 µM	36.3 µM	–	–	75 µM	–	48.8	14.3 µM	–	–	–	–	–	–	–	–	–	–
OC1CCC[C@@H]1Sc1ccccc1 (stereo not given in full)	> 100 µM	–	> 100 µM	> 100 µM	> 100 µM	> 100	> 100 µM	> 100 µM	> 100	> 100 µM	–	–	–	–	–	–	–	–	–	–
N#Cc1cc(NC(=O)c2ccccc2)c(=O)n2c1[nH]c1ccccc12	90.4 µM	83 µM	–	84.4 µM	> 100 µM	> 100	> 100 µM	80.7 µM	76.9	> 100 µM	–	–	–	–	–	–	–	–	–	–
COc1cc(/C=C\c2cc(/C=C\c3ccc(O)c(OC)c3)n(C(=O)CNc3ccc(Cl)cc3)n2)ccc1O	13 µM	12 µM	6.95 µM	–	18 µM	43.6	14.5 µM	8.11 µM	15.5	13.5 µM	3.65 µM	–	3.36	3.48	2.89	1.6	2.17	6.01	2.46 µM	2.9 µM
O=C1C2ON3c4ccccc4C(=O)C3(c3ccccc3)C2C(=O)N1c1ccccc1 (stereo not given)	> 100 µM	> 100 µM	–	> 100 µM	> 100 µM	–	> 100 µM	–	> 100	> 100 µM	–	–	–	–	–	–	–	–	–	–
COC(=O)C1=C(O)[C@H](C(=O)OC)[C@]2(O)[C@@H](C(=O)OC)[C@H]1C[C@@H](c1ccc(OC(=O)/C=C/c3ccco3)cc1)[C@@H]2C(=O)OC	–	–	3.17 µM	–	19.3 µM	86.8	49.1 µM	82.5 µM	23.2	17.6 µM	–	–	27	21.9	10.7	–	1.59	7	27.6 µM	4.9 µM
COC(=O)C(=O)C(C(=O)C(=O)Nc1ccc(C)cc1)c1nc2ccc(C(=O)c3ccccc3)cc2[nH]c1=O (stereo not given)	> 100 µM	> 100 µM	> 100 µM	> 100 µM	> 100 µM	> 100	> 100 µM	> 100 µM	–	> 100 µM	–	–	–	–	–	–	–	–	–	–
CCc1nc2cc(/C=C/C(=O)NO)ccc2c(=O)n1CCc1ccc(F)cc1	4.3 µM	12.4 µM	2.78 µM	5.53 µM	3.95 µM	6.12	7.21 µM	–	3.6	2.93 µM	1.93 µM	1.73 µM	2.27	2.44	1.65	1.83	1.35	1.59	–	0.49 µM
COc1ccc(/C=C\c2cc(OC)c(OC)c(OC)c2)c(O)c1O	15.1 µM and 48.3 µM	27.1 µM and 129 µM	16.9 µM and 8.07 µM	0.0821 µM and 0.2 µM	2.47 µM and 3.06 µM	–	70.1 µM and 96.1 µM	6.47 µM and 0.77 µM	9.95	14.3 µM and 24 µM	0.586 µM and 1.68 µM	< 0.0264 µM and 0.05 µM	–	3.76	–	–	0.0512	–	0.0695 µM and 0.0832 µM	0.136 µM and 1.33 µM
CC(=O)O[C@H]1C(=O)[C@@]2(C)[C@H]([C@H](OC(=O)c3ccccc3)[C@@]3(O)C[C@H](O)C(C)=C1C3(C)C)[C@]1(OC(C)=O)CO[C@@H]1C[C@@H]2O	69.1 µM	> 100 µM	> 100 µM	> 100 µM	–	> 100	> 100 µM	> 100 µM	74.8	> 100 µM	–	–	–	–	–	–	–	–	–	–
CCCN1C(=O)/C(=C/c2ccc(O)cc2)SC1=Nc1ccc(OC)cc1	41.9 µM	–	30.8 µM	33.1 µM	–	27.8	27.9 µM	42.8 µM	60.6	29.3 µM	18.1 µM	16.2 µM	12.9	12.3	26.8	–	15.4	–	17.3 µM	14.2 µM
CCOC(=O)C1SC(=Nc2ccc(Cl)cc2C)N=C1C (stereo not given)	–	39.2 µM	28.2 µM	34.5 µM	47.9 µM	79.9	75.2 µM	48.2 µM	35.3	28.4 µM	–	–	–	–	–	–	–	–	–	–
Nc1nc(N)c(N=Nc2ccc(C(=O)O)c(O)c2)c(N)n1	> 100 µM	> 100 µM	> 100 µM	> 100 µM	–	> 100	> 100 µM	53.8 µM	> 100	> 100 µM	–	–	–	–	–	–	–	–	–	–
CN(C)CCC1(C2=CCCC2)CC/C(=C\c2ccccc2Cl)C1=O (stereo not given)	–	28 µM	–	28.9 µM	22.1 µM	–	29.3 µM	28.9 µM	26.8	24.6 µM	–	–	–	–	–	–	–	–	–	–
CO[C@@H]1[C@H]2[C@@H](C)c3ccoc3C[C@@H]2[C@@]2(C)CC[C@H](OC(=O)c3ccccc3)[C@](C)(C(=O)O)[C@]2(O)[C@@H]1OC(=O)c1ccccc1	–	–	13.6 µM	16.5 µM	–	15.6	45.6 µM	15.9 µM	24.4	15.8 µM	–	8.81 µM	7.46	11.1	8.53	–	6.73	–	5.17 µM	8.89 µM
C/C(CCn1[nH]c(=O)ccc1=O)=N\Nc1ccc([N+](=O)[O-])cc1[N+](=O)[O-]	–	> 100 µM	> 100 µM	> 100 µM	> 100 µM	> 100	> 100 µM	> 100 µM	> 100	> 100 µM	–	–	–	–	–	–	–	–	–	–
CCOC(=O)c1c2cccccc2n2c(=O)cc(C)nc12	–	–	> 100 µM	> 100 µM	> 100 µM	> 100	> 100 µM	> 100 µM	> 100	–	–	–	–	–	–	–	–	–	–	–
